Assay results reported in patent US9187413B2, “Peripherally restricted FAAH inhibitors” (The Regents of the University of California, priority 2010, dated 2015).
Read-outs that look alike come from different tables or passages of the source.

Experiments:
[1] = Drug distribution coefficient n-octanol/buffer pH 7.4; type: physicochemical; conditions: n-octanol / aqueous buffer pH 7.4, 25±1° C., mean±sem, n=3; read-out: distribution coefficient, Log Doct,pH7.4
Method: Drug distribution coefficients. We determined Log D7.4,oct values at room temperature (25±1° C.) partitioning the solutes between n-octanol and an aqueous solution buffered at pH 7.4^36.

FAAH [2] = target: T1, FAAH (Mus musculus (Mouse), UniProt O08914); assay: Tissue levels of anandamide, PEA and 2-AG by LC/MS; type: in vivo; conditions: mice, 1 mg-kg^-1, i.p.
Method: Tissue extractions Mice were sacrificed with isoflurane and tissues were collected and immediately frozen in liquid nitrogen. Frozen tissues were weighed and homogenized in methanol (1 mL) containing [^2H4]-anandamide, [^2H4]-PEA, [^2H8]-2-AG, and N-cyclohexyl biphenyl-3-ylacetamide as internal standards. Analytes were extracted with chloroform (2 vol) and washed with water (1 vol). Organic phases were collected and dried under nitrogen. […] For other analyses the organic extract was fractionated by open-bed silica gel column chromatography, as described^43. Briefly, the extract was dissolved in chloroform and loaded onto small glass columns packed with Silica Gel G (60˜A 230-400 Mesh ASTM; Whatman, Clifton, N.J.). Anandamide, PEA and 2-AG were eluted with chloroform/methanol (9:1, vol/vol).
Mobile phase A consisted of methanol containing 0.25% acetic acid, 5 mM ammonium acetate; mobile phase B consisted of water containing 0.25% acetic acid, 5 mM ammonium acetate. […] Column temperature was kept at 40° C. […] Limit of quantification was 0.4 pmol.

Fos protein = assay: Formalin-induced Fos expression in lumbar spinal cord; type: in vivo; conditions: rats, URB937 1 mg-kg^-1, i.p., lumbar spinal cord
Method: Fos expression. We measured Fos protein levels by quantitative immunocytochemistry^5 on slices of lumbar (L4/L5) spinal cord from male Sprague-Dawley rats.
Fos immunohistochemistry Two hours after formalin injection into the dorsal paw, rats received a lethal dose of Nembutal (50 mg-mL^−1). They were perfused through the heart with 100 mL of 1% heparinized phosphate buffered saline (PBS) followed by 300 mL of ice-cold 4% paraformaldehyde. The lumbar-sacral region of the spinal cord was collected from each rat. Spinal cords were post fixed in 4% paraformaldehyde at 4° C. for 24 h and then cryoprotected in 30% sucrose at 4° C. for 24-48 hours. Spinal cords were cryostat-cut into 40 μm transverse sections at the level of the lumbar enlargement (L4/L5). Free floating alternating sections were kept in a series of wells filled with PBS. Every fourth section was processed for Fos immunoreactivity to ensure that the same cell would not be counted twice. Endogenous peroxidases were inactivated by incubation in hydrogen peroxide. […]
Selection of sections and quantification of the number of Fos-positive cells was performed by an observer blinded to experimental conditions. […] Using Image J, Fos expressing cells were counted in each subdivision, regardless of staining intensity, by an observer blinded to experimental treatments.

[3] = Tissue distribution of URB937 by LC/MS; type: in vivo; conditions: mice, 1 mg-kg^-1, i.p.
Method: Tissue analyses. We performed tissue extractions and liquid chromatography/mass spectrometry analyses of endocannabinoids as described^38. Similar procedures were utilized for the tissue extraction and LC/MS quantification of URB937, as detailed further below.
Tissue extractions Mice were sacrificed with isoflurane and tissues were collected and immediately frozen in liquid nitrogen. Frozen tissues were weighed and homogenized in methanol (1 mL) containing [^2H4]-anandamide, [^2H4]-PEA, [^2H8]-2-AG, and N-cyclohexyl biphenyl-3-ylacetamide as internal standards. Analytes were extracted with chloroform (2 vol) and washed with water (1 vol). Organic phases were collected and dried under nitrogen. The non-fractionated organic extract was used for quantification of URB937. For other analyses the organic extract was fractionated by open-bed silica gel column chromatography, as described^43. Briefly, the extract was dissolved in chloroform and loaded onto small glass columns packed with Silica Gel G (60˜A 230-400 Mesh ASTM; Whatman, Clifton, N.J.). […]
Mobile phase A consisted of methanol containing 0.25% acetic acid, 5 mM ammonium acetate; mobile phase B consisted of water containing 0.25% acetic acid, 5 mM ammonium acetate. […] Na^+ adducts ([M+Na^+]) of analytes and internal standards were monitored in the selective ion-monitoring mode. Limit of quantification was 0.4 pmol.

FAAH [4] = target: T1, FAAH; assay: FAAH inhibition ex vivo after systemic administration in mice; conditions: mouse, ip
Method: Drug preparation for in vivo experiments Drugs were dissolved in polyethylene glycol 400/Tween-80/saline (1/1/18; by volume) and administered by i.p. (5-10 mL-kg^−1) or s.c. injection (10 mL-kg^−1).

[5] = Drug transport assay through polarized TC7 monolayers; type: in vitro ADME; conditions: human
Method: (§1) Drug transport assays. Assays were performed at Cerep Inc. (Redmond, Wash.), following protocols outlined in the company's web-site (http://www.cerep.fr).
(§2) Drug transport assays Transport assays were conducted at Cerep Inc. (Redmond, Wash.). Cellular permeability was determined in the apical (A) to basal (B) and the B to A direction in the presence of 10 μM compound in Hanks' buffered salt solution containing 1% dimethylsulfoxide (DMSO). Efflux ratios were calculated as the ratio of B-A to A-B permeabilities.

Pgp = assay: as above; type: in vitro ADME; conditions: human, Caco-2, with verapamil (100 μM); TC7 monolayers, Pgp inhibitor verapamil (100 μM); read-out: B-A permeability with verapamil
Method: as §1, §2

T1 sequence (O08914 whole entry): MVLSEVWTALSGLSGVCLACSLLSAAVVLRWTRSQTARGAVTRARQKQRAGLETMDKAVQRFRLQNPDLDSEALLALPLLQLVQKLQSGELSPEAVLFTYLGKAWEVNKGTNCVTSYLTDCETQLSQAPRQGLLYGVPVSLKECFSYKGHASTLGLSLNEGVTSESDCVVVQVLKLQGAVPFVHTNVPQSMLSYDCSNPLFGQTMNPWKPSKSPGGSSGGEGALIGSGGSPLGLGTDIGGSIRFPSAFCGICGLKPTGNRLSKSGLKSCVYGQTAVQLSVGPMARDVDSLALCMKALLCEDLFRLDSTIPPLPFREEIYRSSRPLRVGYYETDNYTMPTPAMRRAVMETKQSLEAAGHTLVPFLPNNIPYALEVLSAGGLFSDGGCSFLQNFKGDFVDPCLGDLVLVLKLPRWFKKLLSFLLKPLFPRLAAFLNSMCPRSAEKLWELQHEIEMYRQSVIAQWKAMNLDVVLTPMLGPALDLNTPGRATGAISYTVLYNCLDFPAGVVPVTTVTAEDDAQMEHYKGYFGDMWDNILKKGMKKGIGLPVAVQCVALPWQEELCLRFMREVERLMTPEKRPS

For `NC(=O)c1cccc(-c2cc(OC(=O)NC3CCCCC3)ccc2O)c1` [Compound 1b, cyclohexylcarbamic acid 3′-carbamoyl-6-hydroxybiphenyl-3-yl ester], the logD [1] was 3.03 ± 0.01, the anandamide levels (FAAH [2]) was “increased anandamide levels in the periphery, not in forebrain or hypothalamus” and the “tissue levels of 2-AG in vivo” value (FAAH [2]) was “did not alter”. The “formalin-induced Fos expression” value (Fos protein) was “lowered the Fos response to formalin”, the “URB937 level in brain tissue after systemic administration” value [3] was “undetectable” and the inhibition at 1 mg/kg (FAAH [4]; Mice, 1 mg/Kg i.p., Colon, read-out: % of FAAH inhibition, Colon) was 84.7 ± 0.3%. For the same compound, the inhibition at 1 mg/kg (FAAH [4]; Mice, 1 mg/Kg i.p., Duodenum, read-out: % of FAAH inhibition, Duodenum) was 84.3 ± 1.4%, the inhibition at 1 mg/kg (FAAH [4]; Mice, 1 mg/Kg i.p., Hypothalamus, read-out: % of FAAH inhibition, Hypothalamus) was 18.4 ± 13.8% and the inhibition at 1 mg/kg (FAAH [4]; Mice, 1 mg/Kg i.p., Illeum, read-out: % of FAAH inhibition, Illeum) was 86.8 ± 2.4%. For the same compound, the inhibition at 1 mg/kg (FAAH [4]; Mice, 1 mg/Kg i.p., Jejunum, read-out: % of FAAH inhibition, Jejunum) was 90 ± 1.4%, the inhibition at 1 mg/kg (FAAH [4]; Mice, 1 mg/Kg i.p., Kidney, read-out: % of FAAH inhibition, Kidney) was 88.3 ± 1% and the inhibition at 1 mg/kg (FAAH [4]; Mice, 1 mg/Kg i.p., Liver, read-out: % of FAAH inhibition, Liver) was 91.7 ± 0.7%. The inhibition at 1 mg/kg (FAAH [4]; Mice, 1 mg/Kg i.p., Spinal cord, read-out: % of FAAH inhibition, Spinal cord) was 17.7 ± 10.6%, the inhibition at 1 mg/kg (FAAH [4]; Mice, 1 mg/Kg i.p., Spleen, read-out: % of FAAH inhibition, Spleen) was 72.5 ± 0.7% and the inhibition at 1 mg/kg (FAAH [4]; ex vivo 1 h after a single injection in mice (1 mg-kg^-1, i.p.), brain, read-out: FAAH Inhibition in brain (%)) was -3 ± 8%. The recovery at 10 μM ([5]; Caco-2, TC7 monolayers, 10 μM compound, read-out: % recovery A-B) was 83%, the recovery at 10 μM ([5]; Caco-2, TC7 monolayers, 10 μM compound, read-out: % recovery B-A) was 95% and the recovery at 10 μM ([5]; Caco-2, with verapamil 100 μM, TC7 monolayers, verapamil (100 μM), read-out: % recovery B-A with verapamil) was 94%. For the same compound, the Papp A→B at 10 μM ([5]; Caco-2, TC7 monolayers, 10 μM compound, mean of 2 independent experiments, read-out: permeability A-B) was 3.8 ×10⁻⁶ cm/s, the Papp B→A at 10 μM ([5]; Caco-2, TC7 monolayers, 10 μM compound, mean of 2 independent experiments, read-out: permeability B-A) was 37.1 ×10⁻⁶ cm/s and the Papp B→A at 10 μM (Pgp) was 32.2 ×10⁻⁶ cm/s.
